Assay results as given in patent US11696937B2, “Glycopeptide compounds having activity of resisting drug-resistant bacteria, and preparation method and application thereof” (priority 2018, dated 2023).
Converted amounts (≈) assume the structure as drawn.

Legend:
wild AB zebrafish = test: Zebrafish toxicity test; format: in vivo; conditions: intravenous injection, 72 hours of treatment, samples in phosphate form
Protocol: A zebrafish toxicity test of the compounds in Table 1 is also tested. Randomly select wild AB zebrafish in a six-well plate, and inject each test sample at a dose of 50, 100, 150, 200, and 250 ng/tail intravenously. At the same time, a normal control group and a solvent control group (aqueous phosphoric acid) are set; During this experiment, the death of zebrafish is observed and recorded every day and the dead fish are removed. After 72 hours of treatment, the death of zebrafish is counted. Calculate the LD50 of each test product to zebrafish.
All samples are tested for zebrafish toxicity in phosphate form.

ATCC43300 (MRSA) = test: In vitro antibacterial activity (MIC) against MRSA; format: cell-based, Methicillin-resistant Staphylococcus aureus; conditions: MRSA strain ATCC43300; method of Pharmacopoeia of the People's Republic of China (2015 edition)
Protocol: (§1) An antibacterial activity of the compounds in Table 1 is determined in vitro, and a minimum inhibitory concentration (MIC) is read. The determination method refers to the method of the Pharmacopoeia of the People's Republic of China (2015 edition). The MRSA detection strain is purchased from ATCC, and the VRE detection strain is from the clinically isolated drug-resistant strain 07-W3-45 from Shanghai Huashan Hospital. Known antibiotic oritavancin (phosphate) is used for a reference drug.

[1] = test system: Clinical isolates 07-W3-45 (VRE); test: In vitro antibacterial activity (MIC) against VRE; format: cell-based, Vancomycin-resistant Enterococcus; conditions: clinically isolated drug-resistant strain 07-W3-45 from Shanghai Huashan Hospital
Protocol: as §1

Row | SMILES | Zebrafish LD50 (wild AB zebrafish) [ng/tail] | MIC ATCC43300 (MRSA) (ATCC43300 (MRSA)) [µg/mL] | MIC Clinical isolates 07-W3-45 (VRE) [1] [µg/mL]
1 | CNC(CC(C)C)C(=O)NC1C(=O)NC(CC(N)=O)C(=O)NC2C(=O)NC3C(=O)NC(C(=O)NC(C(=O)O)c4cc(O)cc(O)c4-c4cc3ccc4O)C(OC3CC(C)(N)C(O)C(C)O3)c3ccc(c(Cl)c3)Oc3cc2cc(c3OC2OC(CO)C(O)C(O)C2OC2CC(C)(NCc3ccc(NCCc4ccc(Cl)cc4)cc3)C(O)C(C)O2)Oc2ccc(cc2Cl)C1O (stereo not drawn) [Compound 21] | 102 | 0.016 (≈ 0.00871 µM) | 0.5 (≈ 0.272 µM)
2 | CNC(CC(C)C)C(=O)NC1C(=O)NC(CC(N)=O)C(=O)NC2C(=O)NC3C(=O)NC(C(=O)NC(C(=O)O)c4cc(O)cc(O)c4-c4cc3ccc4O)C(OC3CC(C)(N)C(O)C(C)O3)c3ccc(c(Cl)c3)Oc3cc2cc(c3OC2OC(CO)C(O)C(O)C2OC2CC(C)(NCc3ccc(OCc4ccccc4)cc3)C(O)C(C)O2)Oc2ccc(cc2Cl)C1O (stereo not drawn) [Compound 1] | 139 | 0.5 (≈ 0.28 µM) | 2 (≈ 1.12 µM)
3 | CNC(CC(C)C)C(=O)NC1C(=O)NC(CC(N)=O)C(=O)NC2C(=O)NC3C(=O)NC(C(=O)NC(C(=O)O)c4cc(O)cc(O)c4-c4cc3ccc4O)C(OC3CC(C)(N)C(O)C(C)O3)c3ccc(c(Cl)c3)Oc3cc2cc(c3OC2OC(CO)C(O)C(O)C2OC2CC(C)(NCc3ccc(SCCc4ccc(Cl)cc4)cc3)C(O)C(C)O2)Oc2ccc(cc2Cl)C1O (stereo not drawn) [Compound 16] | 72 | 0.032 (≈ 0.0173 µM) | 0.5 (≈ 0.27 µM)
4 | CNC(CC(C)C)C(=O)NC1C(=O)NC(CC(N)=O)C(=O)NC2C(=O)NC3C(=O)NC(C(=O)NC(C(=O)O)c4cc(O)cc(O)c4-c4cc3ccc4O)C(OC3CC(C)(N)C(O)C(C)O3)c3ccc(c(Cl)c3)Oc3cc2cc(c3OC2OC(CO)C(O)C(O)C2OC2CC(C)(NCc3ccc(NCCCc4ccccc4)cc3)C(O)C(C)O2)Oc2ccc(cc2Cl)C1O (stereo not drawn) [Compound 24] | 153 | 0.5 (≈ 0.275 µM) | 1 (≈ 0.551 µM)
5 | CNC(CC(C)C)C(=O)NC1C(=O)NC(CC(N)=O)C(=O)NC2C(=O)NC3C(=O)NC(C(=O)NC(C(=O)O)c4cc(O)cc(O)c4-c4cc3ccc4O)C(OC3CC(C)(N)C(O)C(C)O3)c3ccc(c(Cl)c3)Oc3cc2cc(c3OC2OC(CO)C(O)C(O)C2OC2CC(C)(NCc3ccc(OCCc4ccc(C)cc4)cc3)C(O)C(C)O2)Oc2ccc(cc2Cl)C1O (stereo not drawn) [Compound 6] | 121 | 0.25 (≈ 0.138 µM) | 8 (≈ 4.4 µM)
6 | CNC(CC(C)C)C(=O)NC1C(=O)NC(CC(N)=O)C(=O)NC2C(=O)NC3C(=O)NC(C(=O)NC(C(=O)O)c4cc(O)cc(O)c4-c4cc3ccc4O)C(OC3CC(C)(N)C(O)C(C)O3)c3ccc(c(Cl)c3)Oc3cc2cc(c3OC2OC(CO)C(O)C(O)C2OC2CC(C)(NCc3ccc(OCCc4ccc(OC)cc4)cc3)C(O)C(C)O2)Oc2ccc(cc2Cl)C1O (stereo not drawn) [Compound 12] | 188 | 0.5 (≈ 0.273 µM) | 16 (≈ 8.73 µM)
7 | CNC(CC(C)C)C(=O)NC1C(=O)NC(CC(N)=O)C(=O)NC2C(=O)NC3C(=O)NC(C(=O)NC(C(=O)O)c4cc(O)cc(O)c4-c4cc3ccc4O)C(OC3CC(C)(N)C(O)C(C)O3)c3ccc(c(Cl)c3)Oc3cc2cc(c3OC2OC(CO)C(O)C(O)C2OC2CC(C)(NCc3ccc(OCCc4ccc(Cl)cc4)cc3)C(O)C(C)O2)Oc2ccc(cc2Cl)C1O (stereo not drawn) [Compound 8] | 150 | 0.5 (≈ 0.272 µM) | 1 (≈ 0.544 µM)
8 | CNC(CC(C)C)C(=O)NC1C(=O)NC(CC(N)=O)C(=O)NC2C(=O)NC3C(=O)NC(C(=O)NC(C(=O)O)c4cc(O)cc(O)c4-c4cc3ccc4O)C(OC3CC(C)(N)C(O)C(C)O3)c3ccc(c(Cl)c3)Oc3cc2cc(c3OC2OC(CO)C(O)C(O)C2OC2CC(C)(NCc3ccc(SCc4ccc(Cl)cc4)cc3)C(O)C(C)O2)Oc2ccc(cc2Cl)C1O (stereo not drawn) [Compound 15] | 76 | 0.032 (≈ 0.0174 µM) | 1 (≈ 0.544 µM)
9 | CNC(CC(C)C)C(=O)NC1C(=O)NC(CC(N)=O)C(=O)NC2C(=O)NC3C(=O)NC(C(=O)NC(C(=O)O)c4cc(O)cc(O)c4-c4cc3ccc4O)C(OC3CC(C)(N)C(O)C(C)O3)c3ccc(c(Cl)c3)Oc3cc2cc(c3OC2OC(CO)C(O)C(O)C2OC2CC(C)(NCc3ccc(OCCCc4ccc(Cl)cc4)cc3)C(O)C(C)O2)Oc2ccc(cc2Cl)C1O (stereo not drawn) [Compound 13] | 164 | 0.5 (≈ 0.27 µM) | 2 (≈ 1.08 µM)
10 | CNC(CC(C)C)C(=O)NC1C(=O)NC(CC(N)=O)C(=O)NC2C(=O)NC3C(=O)NC(C(=O)NC(C(=O)O)c4cc(O)cc(O)c4-c4cc3ccc4O)C(OC3CC(C)(N)C(O)C(C)O3)c3ccc(c(Cl)c3)Oc3cc2cc(c3OC2OC(CO)C(O)C(O)C2OC2CC(C)(NCc3ccc(OCCCc4ccccc4)cc3)C(O)C(C)O2)Oc2ccc(cc2Cl)C1O (stereo not drawn) [Compound 3] | 123 | 0.25 (≈ 0.138 µM) | 1 (≈ 0.55 µM)
11 | CNC(CC(C)C)C(=O)NC1C(=O)NC(CC(N)=O)C(=O)NC2C(=O)NC3C(=O)NC(C(=O)NC(C(=O)O)c4cc(O)cc(O)c4-c4cc3ccc4O)C(OC3CC(C)(N)C(O)C(C)O3)c3ccc(c(Cl)c3)Oc3cc2cc(c3OC2OC(CO)C(O)C(O)C2OC2CC(C)(NCc3ccc(OCCc4ccc(Br)cc4)cc3)C(O)C(C)O2)Oc2ccc(cc2Cl)C1O (stereo not drawn) [Compound 9] | 129 | 0.25 (≈ 0.133 µM) | 1 (≈ 0.531 µM)
12 | CNC(CC(C)C)C(=O)NC1C(=O)NC(CC(N)=O)C(=O)NC2C(=O)NC3C(=O)NC(C(=O)NC(C(=O)O)c4cc(O)cc(O)c4-c4cc3ccc4O)C(OC3CC(C)(N)C(O)C(C)O3)c3ccc(c(Cl)c3)Oc3cc2cc(c3OC2OC(CO)C(O)C(O)C2OC2CC(C)(NCc3ccc(OCCc4ccccc4)cc3)C(O)C(C)O2)Oc2ccc(cc2Cl)C1O (stereo not drawn) [Compound 2] | 163 | 0.5 (≈ 0.277 µM) | 2 (≈ 1.11 µM)
13 | CNC(CC(C)C)C(=O)NC1C(=O)NC(CC(N)=O)C(=O)NC2C(=O)NC3C(=O)NC(C(=O)NC(C(=O)O)c4cc(O)cc(O)c4-c4cc3ccc4O)C(OC3CC(C)(N)C(O)C(C)O3)c3ccc(c(Cl)c3)Oc3cc2cc(c3OC2OC(CO)C(O)C(O)C2OC2CC(C)(NCc3ccc(NCCc4ccc(OC)cc4)cc3)C(O)C(C)O2)Oc2ccc(cc2Cl)C1O (stereo not drawn) [Compound 23] | 192 | 0.5 (≈ 0.273 µM) | 1 (≈ 0.546 µM)
14 | CNC(CC(C)C)C(=O)NC1C(=O)NC(CC(N)=O)C(=O)NC2C(=O)NC3C(=O)NC(C(=O)NC(C(=O)O)c4cc(O)cc(O)c4-c4cc3ccc4O)C(OC3CC(C)(N)C(O)C(C)O3)c3ccc(c(Cl)c3)Oc3cc2cc(c3OC2OC(CO)C(O)C(O)C2OC2CC(C)(NCc3ccc(SCc4ccccc4)cc3)C(O)C(C)O2)Oc2ccc(cc2Cl)C1O (stereo not drawn) [Compound 14] | 82 | 0.032 (≈ 0.0177 µM) | 8 (≈ 4.43 µM)
15 | CNC(CC(C)C)C(=O)NC1C(=O)NC(CC(N)=O)C(=O)NC2C(=O)NC3C(=O)NC(C(=O)NC(C(=O)O)c4cc(O)cc(O)c4-c4cc3ccc4O)C(OC3CC(C)(N)C(O)C(C)O3)c3ccc(c(Cl)c3)Oc3cc2cc(c3OC2OC(CO)C(O)C(O)C2OC2CC(C)(NCc3ccc(NCCc4ccc(C(F)(F)F)cc4)cc3)C(O)C(C)O2)Oc2ccc(cc2Cl)C1O (stereo not drawn) [Compound 22] | 142 | 0.032 (≈ 0.0171 µM) | 0.25 (≈ 0.134 µM)
16 | CNC(CC(C)C)C(=O)NC1C(=O)NC(CC(N)=O)C(=O)NC2C(=O)NC3C(=O)NC(C(=O)NC(C(=O)O)c4cc(O)cc(O)c4-c4cc3ccc4O)C(OC3CC(C)(N)C(O)C(C)O3)c3ccc(c(Cl)c3)Oc3cc2cc(c3OC2OC(CO)C(O)C(O)C2OC2CC(C)(NCc3ccc(OCCc4ccc(C(F)(F)F)cc4)cc3)C(O)C(C)O2)Oc2ccc(cc2Cl)C1O (stereo not drawn) [Compound 11] | 99 | 0.064 (≈ 0.0342 µM) | 0.5 (≈ 0.267 µM)
17 | CNC(CC(C)C)C(=O)NC1C(=O)NC(CC(N)=O)C(=O)NC2C(=O)NC3C(=O)NC(C(=O)NC(C(=O)O)c4cc(O)cc(O)c4-c4cc3ccc4O)C(OC3CC(C)(N)C(O)C(C)O3)c3ccc(c(Cl)c3)Oc3cc2cc(c3OC2OC(CO)C(O)C(O)C2OC2CC(C)(NCc3ccc(OCc4ccc(C)cc4)cc3)C(O)C(C)O2)Oc2ccc(cc2Cl)C1O (stereo not drawn) [Compound 4] | 101 | 0.5 (≈ 0.277 µM) | 2 (≈ 1.11 µM)
18 | CNC(CC(C)C)C(=O)NC1C(=O)NC(CC(N)=O)C(=O)NC2C(=O)NC3C(=O)NC(C(=O)NC(C(=O)O)c4cc(O)cc(O)c4-c4cc3ccc4O)C(OC3CC(C)(N)C(O)C(C)O3)c3ccc(c(Cl)c3)Oc3cc2cc(c3OC2OC(CO)C(O)C(O)C2OC2CC(C)(NCc3ccc(NCc4ccc(Cl)cc4)cc3)C(O)C(C)O2)Oc2ccc(cc2Cl)C1O (stereo not drawn) [Compound 19] | 117 | 0.25 (≈ 0.137 µM) | 0.2 (≈ 0.11 µM)
19 | CNC(CC(C)C)C(=O)NC1C(=O)NC(CC(N)=O)C(=O)NC2C(=O)NC3C(=O)NC(C(=O)NC(C(=O)O)c4cc(O)cc(O)c4-c4cc3ccc4O)C(OC3CC(C)(N)C(O)C(C)O3)c3ccc(c(Cl)c3)Oc3cc2cc(c3OC2OC(CO)C(O)C(O)C2OC2CC(C)(NCc3ccc(OCCc4cccc(Br)c4)cc3)C(O)C(C)O2)Oc2ccc(cc2Cl)C1O (stereo not drawn) [Compound 10] | 113 | 0.125 (≈ 0.0664 µM) | 1 (≈ 0.531 µM)
